# Source: US5728709A, “Alkyl and aralkyl-substituted pyrrolocarbazole derivatives that stimulate platelet production” (Kyowa Hakko Kogyo Co., Ltd., priority 1995, dated 1998)
# Like-named read-outs stand apart in the source and are kept apart here.
# How the values were obtained:
# [1] = tested on: Megakaryocyte Colony Formation; assay: Megakaryocyte Colony Formation-Stimulating Activity; type: cell-based, Balb/c mouse; conditions: IL-3 present, 7 days culture, relative to control (IL-3 alone) = 100
# Method: An eight-week-old Balb/c mouse was killed. Its femurs and cervical vertebrae were taken out and both ends thereof were cut off. Bone marrow cells were collected from the pieces cut off from the femurs and cervical vertebrae using a syringe containing IMDM (430-2200EA manufactured by Gibco Co.), and blown into a test tube. The test tube was allowed to stand for 5 minutes, and the supernatant was collected with a pipet. Each of the test compounds at various concentrations was separately added to a separate reaction mixture corltaining the bone marrow cells (50,000 cells), bovine serum albumin (2%: A4508, manufactured by Sigma Co.), transferrin (600 μg/ml: 652202, manufactured by Boehringer Mannheim Co.), IL-3 (100 U/ml) , cholesterol (16 μg/ml: 036-0641, manufactured by Wako Co.) and agar (0.6%: 0142-02, manufactured by Difco Laboratories);Then, 1 ml each of the mixtures was put into a 35-mm dishes (manufactured by Lux Co.); and cultured at 37° C., 5% CO2, and relative humidity of not less than 95%, for 7 days. A control was prepared by adding IL-3 alone to the bone marrow cells. After the completion of the culturing, the resultant agar was dried by using filter paper (1001-055, manufactured by Whatman Co.), fixed with 2.5% glutaraldehyde, followed by acetylcholinesterase staining (ACHE staining).
# ACHE staining was carried out according to the following method:
# ACHE staining: To each sample was added a solution containing 0.67 mg/ml acetylthiocholine iodide, 2.94 mg/ml sodium citrate, 7.5 mg/ml copper (II) sulfate, and 1.65 mg/ml potassium ferricyanide. Then, the mixture was allowed to stand at room temperature in the dark for 4 to 6 hours.
# A group of 4 or more megakaryocytes which were stained reddish brown was regarded as one colony, and the number of colonies per dish was calculated using a microscope.
# The results are shown in Table 5 as values relative to the control. (In the table, the relative values were calculated on the basis of the control defined as 100).
# Platelet Production = assay: Platelet Production-Stimulating Activity in Mice; type: in vivo; conditions: Mus musculus, 360 h, male Balb/c mice, 15th day, control = 100, read-out: Ratio of increase (number of platelets, A/B×100); for response vs control in vivo at 50 mg/kg: 50 mg/kg i.p. once a day for 5 days
# Method: A test compound was intraperitoneally (i. p.) or subcutaneously (s. c.) administered to 7-week-old male Balb/c mice once a day for consecutive 5 days (test group, 4 mice per group). A control group (4 mice per group) was administered only a solvent (5% Tween 80/water) alone. On the 15th day from the start of the administration, blood was collected from the fundus oculi vein of each mouse, and the number of platelets was counted with a micro counter (Model CC-180A, manufactured by Toa Iryo Denshi Co.). The rate (%) of increase in the number of platelets in the test group which had been administered test compounds over the control group was calculated according to the following formula to evaluate the effect of the test compound.
# [Ratio of increase]=A/B×100
# A: the number of platelets in the test group
# B: the number of platelets in the control group
# [2] = sc, free base, 10 mg/kg s.c. once a day for 5 days
# [3] = sc, 10 mg/kg s.c. once a day for 5 days
Compound,"Rel. Value (megakaryocyte colony formation, control defined as 100) ([1]; 1 nM)","Rel. Value (megakaryocyte colony formation, control defined as 100) ([1]; 10 nM)",also measured
O=C1c2c(-c3ccccc3[N+](=O)[O-])cc3[nH]c4ccccc4c3c2C(=O)N1Cc1ccccc1 [Compound 1],147,–,–
Nc1ccccc1-c1cc2[nH]c3ccccc3c2c2c1C(=O)N(Cc1ccccc1)C2=O [Compound 5],117,–,response vs control in vivo at 50 mg/kg (Platelet Production; ip): 111%
CN1C(=O)c2c(-c3ccccc3[N+](=O)[O-])cc3[nH]c4ccccc4c3c2C1=O [Compound 10],120,–,–
CN1C(=O)c2c(-c3ccccc3N)cc3[nH]c4ccccc4c3c2C1=O [Compound 11],–,128,–
CN1C(=O)c2c(-c3ccccc3N)cc3c(c2C1=O)c1ccccc1n3Cc1ccc(N)cc1 [Compound 17],123,–,–
CN(C)CCCn1c2ccccc2c2c3c(c(-c4ccccc4[N+](=O)[O-])cc21)C(=O)N(C)C3=O [Compound 24],125,–,"response vs control in vivo at 10 mg/kg (Platelet Production; ip, 10 mg/kg i.p. once a day for 5 days): 125%"
CN(C)CCCn1c2ccccc2c2c3c(c(-c4ccccc4N(C)C)cc21)C(=O)N(C)C3=O [Compound 26],–,110,–
CN1C(=O)c2c(-c3ccccc3[N+](=O)[O-])cc3c(c2C1=O)c1ccccc1n3CCCCN1CCOCC1 [Compound 34],–,–,"Rel. Value (megakaryocyte colony formation, control defined as 100) ([1]; 0.1 nM): 114"
CN(C)CCCn1c2ccccc2c2c3c(c(-c4ccccc4NCCN(C)C)cc21)C(=O)N(C)C3=O [Compound 36],–,149,–
CN1C(=O)c2c(-c3ccccc3NCCO)cc3c(c2C1=O)c1ccccc1n3C [Compound 37],130,–,–
CN(C)CCNc1ccccc1-c1cc2c(c3c1C(=O)N(C)C3=O)c1ccccc1n2C [Compound 40],138,–,response vs control in vivo at 50 mg/kg (Platelet Production; ip): 174%
CN(C)CCCNc1ccccc1-c1cc2c(c3c1C(=O)N(C)C3=O)c1ccccc1n2C [Compound 51],–,141,–
CN(C)CC(=O)Nc1ccccc1-c1cc2c(c3c1C(=O)N(C)C3=O)c1ccccc1n2C [Compound 56],116,–,–
CCN(CC)CCC(=O)Nc1ccccc1-c1cc2c(c3c1C(=O)N(C)C3=O)c1ccccc1n2C [Compound 60],110,–,–
CN(C)CCOc1ccccc1-c1cc2c(c3c1C(=O)N(C)C3=O)c1ccccc1n2C [Compound 66],–,119,response vs control in vivo at 50 mg/kg (Platelet Production; ip): 206%
CN(C)CCNc1ccc([N+](=O)[O-])cc1-c1cc2c(c3c1C(=O)N(C)C3=O)c1ccccc1n2C [Compound 79],–,–,"response vs control in vivo at 25 mg/kg (Platelet Production; ip, 25 mg/kg i.p. once a day for 5 days): 180%"
CN(C)CCNc1ccc(Br)cc1-c1cc2c(c3c1C(=O)N(C)C3=O)c1ccccc1n2C [Compound 82],–,119,–
CN(C)CCn1c(=O)c2c(c3c(c4c5ccccc5n(C)c42)C(=O)N(C)C3=O)c2ccccc21 [Compound 93],–,–,"Rel. Value (megakaryocyte colony formation, control defined as 100) ([1]; 0.1 nM): 119; response vs control in vivo at 50 mg/kg (Platelet Production; ip): 176%"
CC(CN(C)C)Oc1ccccc1-c1cc2c(c3c1C(=O)N(C)C3=O)c1ccccc1n2C (stereo not shown) [Compound 102],142,–,response vs control in vivo at 10 mg/kg (Platelet Production; [2]): 123%
CN(C)CCOc1ccc(Br)cc1-c1cc2c(c3c1C(=O)N(C)C3=O)c1ccccc1n2C [Compound 130],–,–,response vs control in vivo at 10 mg/kg (Platelet Production; [2]): 295%
CN(C)CCOc1ccc(OCc2ccccc2)cc1-c1cc2c(c3c1C(=O)N(C)C3=O)c1ccccc1n2C [Compound 147],–,–,response vs control in vivo at 10 mg/kg (Platelet Production; [3]): 154%
CN(C)CCOc1ccc(C=O)cc1-c1cc2c(c3c1C(=O)N(C)C3=O)c1cc(Br)ccc1n2C [Compound 160],–,120,response vs control in vivo at 10 mg/kg (Platelet Production; [3]): 117%
CN(C)CCOc1ccc(N(C)C)cc1-c1cc2c(c3c1C(=O)N(C)C3=O)c1ccccc1n2C [Compound 170],125,–,response vs control in vivo at 10 mg/kg (Platelet Production; [3]): 138%
CN(C)CCOc1ccccc1-c1cc2c(c3c1C(=O)N(C)C3=O)c1cc(C=O)ccc1n2C [Compound 177],–,120,–
CC(=O)c1ccc2c(c1)c1c3c(c(-c4ccccc4OCCN(C)C)cc1n2C)C(=O)N(C)C3=O [Compound 180],–,–,response vs control in vivo at 10 mg/kg (Platelet Production; [3]): 189%
CN(C)CCOc1c(N)cccc1-c1cc2c(c3c1C(=O)N(C)C3=O)c1ccccc1n2C [Compound 203],–,–,response vs control in vivo at 10 mg/kg (Platelet Production; [3]): 146%
